In brackets after ≈: the same amount, converted by molar mass. Counter-ions that a name gives are not always drawn. Like-named read-outs stand apart in the source and are kept apart here.
Experiments:
[1] = tested on: Staphylococcus aureus, MRSA (ATCC 33591); assay: Antibacterial MIC assay (microbroth dilution, CLSI); format: cell-based; settings: read-out: MIC Staphylococcus aureus, MRSA (ATCC 33591)
Source text: (§1) All MIC testing of bacteria followed the Clinical and Laboratory Standards Institute (CLSI) guidelines for antimicrobial testing of aerobic bacteria (Methods for Dilution Antimicrobial Susceptibility Tests for Bacteria that Grow Aerobically; Approved Standard—Tenth Edition, M07-A10; Performance Standards for Antimicrobial Susceptibility Testing; Twenty-fifth Informational Supplement, M100-S25).
(§2) Briefly, the microbroth dilution MIC method was used to quantitatively measure the in vitro antibacterial activity of a compound against a given bacterial isolate. The following bacterial strains were evaluated: Staphylococcus aureus, MRSA (ATCC 33591) and Streptococcus pneumoniae (ATCC 49619). Bacteria were grown in cation-adjusted Mueller-Hinton broth, with additions as required per species growth requirements (e.g. 3% lysed horse blood for fastidious organisms such as S. pneumoniae). A direct colony suspension in saline was prepared from colonies on an overnight agar plate to achieve a turbidity equivalent to 0.5 McFarland standard, which was subsequently diluted into the assay plate to achieve 5×10^5 CFU/mL. Assays plates were prepared by 2-fold dilution of compound across the plate and included a positive growth control.

[2] = tested on: Streptococcus pneumoniae (ATCC 49619); assay: as above; format: cell-based
Source text: as §1
as §2, with “The following bacterial strains were evaluated: Staphylococcus aureus, MRSA (ATCC 33591) and Streptococcus pneumoniae (ATCC 49619).” left out

[3] = ATCC49619, read-out: MIC Streptococcus pneumoniae (ATCC 49619)
[4] = microbroth dilution, cation-adjusted Mueller-Hinton broth, 35° C. for 16-20 hours
[5] = ATCC49619, microbroth dilution, 3% lysed horse blood, 35° C. for 16-20 hours, read-out: MIC Streptococcus pneumoniae (ATCC 49619)

| MIC [1, 4] [µg/mL] | MIC [2, 5] [µg/mL] | Structure (SMILES) | MIC [1] [µg/mL] | MIC [2, 3] [µg/mL] |
| --- | --- | --- | --- | --- |
| – | – | C=C[C@]1(C)C[C@@H](OC(=O)COc2ccc3c(c2)B(O)OC3(C)C)[C@]2(C)[C@H](C)CC[C@]3(CCC(=O)[C@H]32)[C@@H](C)[C@@H]1O [Compound 20, (3aR,4R,5R,7S,8S,9R,9aS,12R)-8-hydroxy-4,7,9,12-tetramethyl-3-oxo-7-vinyldecahydro-4,9a-propanocyclopenta[8]annulen-5-yl 2-((1-hydroxy-3,3-dimethyl-1,3-dihydrobenzo[c][1,2]oxaborol-6-yl)oxy)acetate] | < 0.25 | 0.5 to 2 (≈ 0.929 to 3.71 µM) |
| 0.5 to 2 | – | C=C[C@]1(C)C[C@@H](OC(=O)COc2ccc3c(c2)B(O)OC3CN)[C@]2(C)[C@H](C)CC[C@]3(CCC(=O)[C@H]32)[C@@H](C)[C@@H]1O.Cl (stereo partly drawn) [Compound 21, (3aR,4R,5R,7S,8S,9R,9aS,12R)-8-hydroxy-4,7,9,12-tetramethyl-3-oxo-7-vinyldecahydro-4,9a-propanocyclopenta[8]annulen-5-yl 2-((3-(aminomethyl)-1-hydroxy-1,3-dihydrobenzo[c][1,2]oxaborol-6-yl)oxy)acetate Hydrochloride] | – | < 0.25 |
| 0.5 to 2 | 0.5 to 2 | C=C[C@]1(C)C[C@@H](OC(=O)COc2ccc3c(c2F)B(O)OC3CN)[C@]2(C)[C@H](C)CC[C@]3(CCC(=O)[C@H]32)[C@@H](C)[C@@H]1O.Cl (stereo partly drawn) [Compound 29, (3aR,4R,5R,7S,8S,9R,9aS,12R)-8-hydroxy-4,7,9,12-tetramethyl-3-oxo-7-vinyldecahydro-4,9a-propanocyclopenta[8]annulen-5-yl 2-((3-(aminomethyl)-7-fluoro-1-hydroxy-1,3-dihydrobenzo[c][1,2]oxaborol-6-yl)oxy)acetate Hydrochloride] | – | – |
| – | – | C=C[C@]1(C)C[C@@H](OC(=O)COc2ccc3c(c2Cl)B(O)OC3CN)[C@]2(C)[C@H](C)CC[C@]3(CCC(=O)[C@H]32)[C@@H](C)[C@@H]1O (stereo partly drawn) [Compound 31, (3aR,4R,5R,7S,8S,9R,9aS,12R)-8-hydroxy-4,7,9,12-tetramethyl-3-oxo-7-vinyldecahydro-4,9a-propanocyclopenta[8]annulen-5-yl 2-((3-(aminomethyl)-7-chloro-1-hydroxy-1,3-dihydrobenzo[c][1,2]oxaborol-6-yl)oxy)acetate Hydrochloride] | 0.5 to 2 | 0.5 to 2 |
| – | – | C=C[C@]1(C)C[C@@H](OC(=O)COc2ccc3c(c2)COB3O)[C@]2(C)[C@H](C)CC[C@]3(CCC(=O)[C@H]32)[C@@H](C)[C@@H]1O [Compound 32, (3aR,4R,5R,7S,8S,9R,9aS,12R)-8-hydroxy-4,7,9,12-tetramethyl-3-oxo-7-vinyldecahydro-4,9a-propanocyclopenta[8]annulen-5-yl 2-((1-hydroxy-1,3-dihydrobenzo[c][1,2]oxaborol-5-yl)oxy)acetate] | < 0.25 | 0.5 to 2 (≈ 0.98 to 3.92 µM) |
| – | – | C=C[C@]1(C)C[C@@H](OC(=O)COc2cc(F)c3c(c2)COB3O)[C@]2(C)[C@H](C)CC[C@]3(CCC(=O)[C@H]32)[C@@H](C)[C@@H]1O [Compound 33, (3aR,4R,5R,7S,8S,9R,9aS,12R)-8-hydroxy-4,7,9,12-tetramethyl-3-oxo-7-vinyldecahydro-4,9a-propanocyclopenta[8]annulen-5-yl 2-((7-fluoro-1-hydroxy-1,3-dihydrobenzo[c][1,2]oxaborol-5-yl)oxy)acetate] | < 0.25 | 0.5 to 2 (≈ 0.946 to 3.78 µM) |
| – | – | C=C[C@]1(C)C[C@@H](OC(=O)COc2cc3c(cc2F)B(O)OC3)[C@]2(C)[C@H](C)CC[C@]3(CCC(=O)[C@H]32)[C@@H](C)[C@@H]1O [Compound 34, (3aR,4R,5R,7S,8S,9R,9aS,12R)-8-hydroxy-4,7,9,12-tetramethyl-3-oxo-7-vinyldecahydro-4,9a-propanocyclopenta[8]annulen-5-yl 2-((6-fluoro-1-hydroxy-1,3-dihydrobenzo[c][1,2]oxaborol-5-yl)oxy)acetate] | < 0.25 | 0.5 to 2 (≈ 0.946 to 3.78 µM) |
| 0.5 to 2 (≈ 1.01 to 4.05 µM) | 0.5 to 2 (≈ 1.01 to 4.05 µM) | C=C[C@]1(C)C[C@@H](OC(=O)Nc2ccc3c(c2)B(O)OC3)[C@]2(C)[C@H](C)CC[C@]3(CCC(=O)[C@H]32)[C@@H](C)C1=O [Compound 43, (3aR,4R,5R,7S,9R,9aS,12R)-4,7,9,12-tetramethyl-3,8-dioxo-7-vinyldecahydro-4,9a-propanocyclopenta[8]annulen-5-yl (1-hydroxy-1,3-dihydrobenzo[c][1,2]oxaborol-6-yl)carbamate] | – | – |
| – | – | C=C[C@]1(C)C[C@@H](OC(=O)CNc2ccc3c(c2)B(O)OC3)[C@]2(C)[C@H](C)CC[C@]3(CCC(=O)[C@H]32)[C@@H](C)[C@@H]1O [Compound 45, (3aR,4R,5R,7S,8S,9R,9aS,12R)-8-hydroxy-4,7,9,12-tetramethyl-3-oxo-7-vinyldecahydro-4,9a-propanocyclopenta[8]annulen-5-yl (1-hydroxy-1,3-dihydrobenzo[c][1,2]oxaborol-6-yl)glycinate] | < 0.25 | 0.5 to 2 (≈ 0.981 to 3.93 µM) |
| – | – | C=C[C@]1(C)C[C@@H](OC(=O)CNc2cc3c(cc2F)COB3O)[C@]2(C)[C@H](C)CC[C@]3(CCC(=O)[C@H]32)[C@@H](C)[C@@H]1O [Compound 46, (3aR,4R,5R,7S,8S,9R,9aS,12R)-8-hydroxy-4,7,9,12-tetramethyl-3-oxo-7-vinyldecahydro-4,9a-propanocyclopenta[8]annulen-5-yl (5-fluoro-1-hydroxy-1,3-dihydrobenzo[c][1,2]oxaborol-6-yl)glycinate] | < 0.25 | 0.5 to 2 (≈ 0.948 to 3.79 µM) |
| 0.5 to 2 (≈ 0.929 to 3.71 µM) | 4 to 32 (≈ 7.43 to 59.4 µM) | C=C[C@]1(C)C[C@@H](OC(=O)CNc2cc3c(cc2CN)COB3O)[C@]2(C)[C@H](C)CC[C@]3(CCC(=O)[C@H]32)[C@@H](C)[C@@H]1O [Compound 47, (3aR,4R,5R,7S,8S,9R,9aS,12R)-8-hydroxy-4,7,9,12-tetramethyl-3-oxo-7-vinyldecahydro-4,9a-propanocyclopenta[8]annulen-5-yl (5-(aminomethyl)-1-hydroxy-1,3-dihydrobenzo[c][1,2]oxaborol-6-yl)glycinate] | – | – |
| – | – | C=C[C@]1(C)C[C@@H](OC(=O)CNc2ccc3c(c2CN)B(O)OC3)[C@]2(C)[C@H](C)CC[C@]3(CCC(=O)[C@H]32)[C@@H](C)[C@@H]1O [Compound 49, (3aR,4R,5R,7S,8S,9R,9aS,12R)-8-hydroxy-4,7,9,12-tetramethyl-3-oxo-7-vinyldecahydro-4,9a-propanocyclopenta[8]annulen-5-yl (7-(aminomethyl)-1-hydroxy-1,3-dihydrobenzo[c][1,2]oxaborol-6-yl)glycinate] | 0.5 to 2 (≈ 0.929 to 3.71 µM) | 0.5 to 2 (≈ 0.929 to 3.71 µM) |
| – | – | C=C[C@]1(C)C[C@@H](OC(=O)CNc2cc(CN)c3c(c2)B(O)OC3)[C@]2(C)[C@H](C)CC[C@]3(CCC(=O)[C@H]32)[C@@H](C)[C@@H]1O [Compound 50, (3aR,4R,5R,7S,8S,9R,9aS,12R)-8-hydroxy-4,7,9,12-tetramethyl-3-oxo-7-vinyldecahydro-4,9a-propanocyclopenta[8]annulen-5-yl (4-(aminomethyl)-1-hydroxy-1,3-dihydrobenzo[c][1,2]oxaborol-6-yl)glycinate] | 0.5 to 2 (≈ 0.929 to 3.71 µM) | < 0.25 |
| – | – | C=C[C@]1(C)C[C@@H](OC(=O)CNc2ccc3c(c2)B(O)OC3(C)C)[C@]2(C)[C@H](C)CC[C@]3(CCC(=O)[C@H]32)[C@@H](C)[C@@H]1O [Compound 51, (3aR,4R,5R,7S,8S,9R,9aS,12R)-8-hydroxy-4,7,9,12-tetramethyl-3-oxo-7-vinyldecahydro-4,9a-propanocyclopenta[8]annulen-5-yl (1-hydroxy-3,3-dimethyl-1,3-dihydrobenzo[c][1,2]oxaborol-6-yl)glycinate] | < 0.25 | 0.5 to 2 (≈ 0.93 to 3.72 µM) |

Source: patent US10919916B2, “Boron-containing small molecules” (Bill & Melinda Gates Foundation, priority 2016, dated 2021)
